What was measured:
[1] = test system: velvetleaf; assay: Test A pre-/postemergence greenhouse test; type: in vivo, Abutilon theophrasti; conditions: for Plant response rating, Velvetleaf: 0 to 100 scale where 0 is no effect and 100 is complete control; for Velvetleaf plant response rating: 0 to 100 scale
How it was run: (§1)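 Two application timings were run side by side in the greenhouse. Before emergence, compound went onto the soil surface of loam–sand pots as a directed spray; after emergence, plants at 2–10 cm and the one- to two-leaf stage were treated. Visual injury versus controls was rated at approximately day ten.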

[2] = test system: giant foxtail; assay: Test A pre-/postemergence greenhouse test; type: in vivo, Setaria faberi; conditions: for Plant response rating, Foxtail, Giant: 0 to 100 scale where 0 is no effect and 100 is complete control; for Foxtail, Giant plant response rating: 0 to 100 scale
How it was run: as §1

[3] = test system: barnyardgrass; assay: Test C flooded paddy test; type: in vivo, Echinochloa crus-galli; conditions: Flood
Excerpt: (§2) At time of treatment, test pots were flooded to 3 cm above the soil surface, treated by application of test compounds directly to the paddy water, and then maintained at that water depth for the duration of the test. Treated plants and controls were maintained in a greenhouse for 13 to 15 days, after which time all species were compared to controls and visually evaluated. […] A dash (-) response means no test result.

[4] = test system: wheat; assay: Test A pre-/postemergence greenhouse test; type: in vivo, Triticum aestivum; conditions: for Plant response rating, Wheat: 0 to 100 scale where 0 is no effect and 100 is complete control; for Wheat plant response rating: 0 to 100 scale
How it was run: as §1

[5] = test system: duck salad; assay: Test C flooded paddy test; type: in vivo, Heteranthera limosa; conditions: Flood
Excerpt: as §2

[6] = test system: crabgrass; assay: Test A pre-/postemergence greenhouse test; type: in vivo, Digitaria sanguinalis; conditions: for Plant response rating, Crabgrass, Large: 0 to 100 scale where 0 is no effect and 100 is complete control; for Crabgrass, Large plant response rating: 0 to 100 scale
How it was run: as §1

[7] = test system: morningglory; assay: Test A pre-/postemergence greenhouse test; type: in vivo, Ipomoea spp.; conditions: for Plant response rating, Morningglory: 0 to 100 scale where 0 is no effect and 100 is complete control; for Morningglory plant response rating: 0 to 100 scale
How it was run: as §1

[8] = test system: redroot pigweed; assay: Test A pre-/postemergence greenhouse test; type: in vivo, Amaranthus retroflexus; conditions: for Plant response rating, Pigweed: 0 to 100 scale where 0 is no effect and 100 is complete control; for Pigweed plant response rating: 0 to 100 scale
How it was run: as §1

[9] = test system: corn; assay: Test A pre-/postemergence greenhouse test; type: in vivo, Zea mays; conditions: for Plant response rating, Corn: 0 to 100 scale where 0 is no effect and 100 is complete control; for Corn plant response rating: 0 to 100 scale
How it was run: as §1

[10] = test system: rice; assay: Test C flooded paddy test; type: in vivo, Oryza sativa; conditions: Flood
Excerpt: as §2

[11] = test system: umbrella sedge; assay: Test C flooded paddy test; type: in vivo, Cyperus difformis; conditions: Flood
Excerpt: as §2

[12] = test system: barnyardgrass; assay: Test A pre-/postemergence greenhouse test; type: in vivo, Echinochloa crus-galli; conditions: for Plant response rating, Barnyardgrass: 0 to 100 scale where 0 is no effect and 100 is complete control; for Barnyardgrass plant response rating: 0 to 100 scale
How it was run: as §1

[13] = Postemergence, 500 g ai/ha, 0 is no effect, 100 is complete control
[14] = Preemergence, 125 g ai/ha, 0 no effect, 100 complete control
[15] = Preemergence, 500 g ai/ha, 0 no effect, 100 complete control
[16] = 62 g ai/ha, scale 0 to 100 (0 no effect, 100 complete control)
[17] = 250 g ai/ha, scale 0 to 100, 0 no effect, 100 complete control, 13 to 15 days
[18] = 62 g ai/ha, scale 0 to 100, 0 no effect, 100 complete control, 13 to 15 days

Cc1cc[n+]([O-])c([S+]([O-])Cc2c(C(F)(F)F)nn(C)c2OCC(F)(F)C(F)(F)F)c1 (centres unmarked) [Compound 90]
Plant response rating, Velvetleaf ([1]; Postemergence, 125 g ai/ha): 0
Velvetleaf plant response rating [1, 13]: 80
Velvetleaf plant response rating [1, 14]: 0
Velvetleaf plant response rating [1, 15]: 70
Plant response rating, Foxtail, Giant ([2]; Postemergence, 125 g ai/ha): 50
Foxtail, Giant plant response rating [2, 13]: 80
Foxtail, Giant plant response rating [2, 14]: 70
Plant response rating, Foxtail, Giant ([2]; Preemergence, 500 g ai/ha): 100
Plant response rating, Barnyardgrass [3, 16]: 0
Plant response rating, Barnyardgrass [3, 17]: 0
Plant response rating, Wheat ([4]; Postemergence, 125 g ai/ha): 0
Wheat plant response rating [4, 13]: 70
Wheat plant response rating [4, 14]: 0
Wheat plant response rating [4, 15]: 80
Plant response rating, Ducksalad [5, 16]: 0
Plant response rating, Ducksalad [5, 17]: 20
Plant response rating, Crabgrass, Large ([6]; Postemergence, 125 g ai/ha): 20
Crabgrass, Large plant response rating [6, 13]: 80
Crabgrass, Large plant response rating [6, 14]: 40
Plant response rating, Crabgrass, Large ([6]; Preemergence, 500 g ai/ha): 90
Plant response rating, Morningglory ([7]; Postemergence, 125 g ai/ha): 20
Morningglory plant response rating [7, 13]: 90
Morningglory plant response rating [7, 14]: 0
Plant response rating, Morningglory ([7]; Preemergence, 500 g ai/ha): 60
Plant response rating, Pigweed ([8]; Postemergence, 125 g ai/ha): 10
Pigweed plant response rating [8, 13]: 30
Pigweed plant response rating [8, 14]: 0
Plant response rating, Pigweed ([8]; Preemergence, 500 g ai/ha): 40
Plant response rating, Corn ([9]; Postemergence, 125 g ai/ha): 30
Corn plant response rating [9, 13]: 50
Corn plant response rating [9, 14]: 0
Plant response rating, Corn ([9]; Preemergence, 500 g ai/ha): 50
Plant response rating, Rice [10, 16]: 0
Plant response rating, Rice [10, 17]: 0
Plant response rating, Sedge, Umbrella [11, 16]: 0
Plant response rating, Sedge, Umbrella [11, 17]: 70
Plant response rating, Barnyardgrass ([12]; Postemergence, 125 g ai/ha): 0
Barnyardgrass plant response rating [12, 13]: 60
Barnyardgrass plant response rating [12, 14]: 0
Plant response rating, Barnyardgrass ([12]; Preemergence, 500 g ai/ha): 100

[O-][n+]1ccccc1[S+]([O-])Cc1c(C(F)(F)F)nn(CC(F)(F)F)c1Cl (centres unmarked) [Compound 43]
Plant response rating, Velvetleaf ([1]; Postemergence, 125 g ai/ha): 20
Velvetleaf plant response rating [1, 13]: 60
Velvetleaf plant response rating [1, 14]: 30
Plant response rating, Velvetleaf ([1]; Preemergence, 500 g ai/ha): 50
Plant response rating, Foxtail, Giant ([2]; Postemergence, 125 g ai/ha): 70
Foxtail, Giant plant response rating [2, 13]: 90
Foxtail, Giant plant response rating [2, 14]: 80
Plant response rating, Foxtail, Giant ([2]; Preemergence, 500 g ai/ha): 90
Plant response rating, Barnyardgrass [3, 18]: 0
Plant response rating, Barnyardgrass [3, 17]: 60
Plant response rating, Wheat ([4]; Postemergence, 125 g ai/ha): 40
Wheat plant response rating [4, 13]: 60
Wheat plant response rating [4, 14]: 40
Plant response rating, Wheat ([4]; Preemergence, 500 g ai/ha): 70
Plant response rating, Ducksalad [5, 18]: 0
Plant response rating, Ducksalad [5, 17]: 60
Plant response rating, Crabgrass, Large ([6]; Postemergence, 125 g ai/ha): 70
Crabgrass, Large plant response rating [6, 13]: 80
Crabgrass, Large plant response rating [6, 14]: 70
Plant response rating, Crabgrass, Large ([6]; Preemergence, 500 g ai/ha): 90
Plant response rating, Morningglory ([7]; Postemergence, 125 g ai/ha): 30
Morningglory plant response rating [7, 13]: 80
Morningglory plant response rating [7, 14]: 0
Plant response rating, Morningglory ([7]; Preemergence, 500 g ai/ha): 80
Plant response rating, Pigweed ([8]; Postemergence, 125 g ai/ha): 30
Pigweed plant response rating [8, 13]: 60
Pigweed plant response rating [8, 14]: 0
Plant response rating, Pigweed ([8]; Preemergence, 500 g ai/ha): 90
Plant response rating, Corn ([9]; Postemergence, 125 g ai/ha): 30
Corn plant response rating [9, 13]: 50
Corn plant response rating [9, 14]: 0
Plant response rating, Corn ([9]; Preemergence, 500 g ai/ha): 50
Plant response rating, Rice [10, 18]: 0
Plant response rating, Rice [10, 17]: 30
Plant response rating, Sedge, Umbrella [11, 18]: 30
Plant response rating, Sedge, Umbrella [11, 17]: 70
Plant response rating, Barnyardgrass ([12]; Postemergence, 125 g ai/ha): 50
Barnyardgrass plant response rating [12, 13]: 80
Barnyardgrass plant response rating [12, 14]: 70
Plant response rating, Barnyardgrass ([12]; Preemergence, 500 g ai/ha): 90

Reference: US20100298141A1, “SUBSTITUTED PYRIDINE N-OXIDE HERBICIDES” (E. I. DU PONT DE NEMOURS AND COMPANY, priority 2007, published 2010)
